ChEMBL document CHEMBL5154787 (J Med Chem, 2022)

Key:
[1] = Metabolic stability in mouse liver microsomes assessed as parent compound remaining at 0.5 uM incubated for 10 mins in presence of NADPH by LC-MS/MS analysis; assay type: ADME, Microsome; conditions: liver microsomes, read-out: Stability
[2] = Metabolic stability in human liver microsomes assessed as parent compound remaining at 0.5 uM incubated for 10 mins in presence of NADPH by LC-MS/MS analysis; assay type: ADME, Microsome; conditions: read-out: Stability
[3] = Metabolic stability in rat liver microsomes assessed as parent compound remaining at 0.5 uM incubated for 10 mins in presence of NADPH by LC-MS/MS analysis; assay type: ADME, Microsome; conditions: read-out: Stability
Cytochrome P450 3A4 = Cytochrome P450 3A4 (Homo sapiens, UniProt P08684); assay: Inhibition of CYP3A4 (unknown origin) incubated for 10 mins in presence of NADPH by LC-MS/MS analysis; assay type: ADME
[4] = target: T1, AP2-associated protein kinase 1 (Homo sapiens, UniProt Q2M2I8); assay: Inhibition of bacterially expressed GST-Xa-tagged human AAK1 using 5-FAM-labelled Aha-KEEQSQITSQVTGQIGWR-NH2 peptide as substrate incubated for 3 hrs in presence of ATP by electrophoretic analysis
[5] = target: AP2-associated protein kinase 1 (Mus musculus, UniProt Q3UHJ0); assay: Displacement of 3H-LP-927443 from AAK1 in C57BL6 mouse brain homogenate assessed as inhibition constant incubated for 1 hr by liquid scintillation counter analysis; assay type: tissue-based
[6] = target: T1, AP2-associated protein kinase 1; assay: Inhibition of full length human AAK1 expressed in HEK293F cells assessed as suppression of AP2 phosphorylation measured after 3 hrs by Western blot analysis based cellular assay; assay type: cell-based

T1 sequence (Q2M2I8 whole entry): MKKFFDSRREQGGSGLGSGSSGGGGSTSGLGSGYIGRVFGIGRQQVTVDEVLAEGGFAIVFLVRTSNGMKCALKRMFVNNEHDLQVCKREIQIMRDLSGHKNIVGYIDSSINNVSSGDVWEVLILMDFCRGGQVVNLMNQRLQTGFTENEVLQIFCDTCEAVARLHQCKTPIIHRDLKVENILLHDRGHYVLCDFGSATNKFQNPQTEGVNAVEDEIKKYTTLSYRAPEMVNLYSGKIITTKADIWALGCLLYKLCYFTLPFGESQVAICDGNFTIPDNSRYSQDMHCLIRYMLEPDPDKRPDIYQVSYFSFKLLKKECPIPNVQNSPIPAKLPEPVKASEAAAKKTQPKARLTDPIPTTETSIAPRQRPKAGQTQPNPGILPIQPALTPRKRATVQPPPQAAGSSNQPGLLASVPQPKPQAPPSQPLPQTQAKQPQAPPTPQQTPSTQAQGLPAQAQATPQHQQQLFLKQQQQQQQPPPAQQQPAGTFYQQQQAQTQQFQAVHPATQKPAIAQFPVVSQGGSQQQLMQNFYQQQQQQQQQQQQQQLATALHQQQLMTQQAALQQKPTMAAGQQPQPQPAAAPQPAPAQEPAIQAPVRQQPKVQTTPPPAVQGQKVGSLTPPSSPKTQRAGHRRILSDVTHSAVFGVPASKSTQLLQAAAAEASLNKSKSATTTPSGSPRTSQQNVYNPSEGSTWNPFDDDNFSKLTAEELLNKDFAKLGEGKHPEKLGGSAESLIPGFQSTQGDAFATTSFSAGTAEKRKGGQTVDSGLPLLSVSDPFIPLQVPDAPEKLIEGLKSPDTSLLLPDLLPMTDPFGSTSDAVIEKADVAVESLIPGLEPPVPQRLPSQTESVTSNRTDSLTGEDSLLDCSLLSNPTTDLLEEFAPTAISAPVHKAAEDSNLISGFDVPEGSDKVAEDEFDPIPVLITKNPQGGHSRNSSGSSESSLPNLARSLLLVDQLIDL
Chain of AP2-associated protein kinase 1 (Mus musculus, UniProt Q3UHJ0) (Q3UHJ0 whole entry): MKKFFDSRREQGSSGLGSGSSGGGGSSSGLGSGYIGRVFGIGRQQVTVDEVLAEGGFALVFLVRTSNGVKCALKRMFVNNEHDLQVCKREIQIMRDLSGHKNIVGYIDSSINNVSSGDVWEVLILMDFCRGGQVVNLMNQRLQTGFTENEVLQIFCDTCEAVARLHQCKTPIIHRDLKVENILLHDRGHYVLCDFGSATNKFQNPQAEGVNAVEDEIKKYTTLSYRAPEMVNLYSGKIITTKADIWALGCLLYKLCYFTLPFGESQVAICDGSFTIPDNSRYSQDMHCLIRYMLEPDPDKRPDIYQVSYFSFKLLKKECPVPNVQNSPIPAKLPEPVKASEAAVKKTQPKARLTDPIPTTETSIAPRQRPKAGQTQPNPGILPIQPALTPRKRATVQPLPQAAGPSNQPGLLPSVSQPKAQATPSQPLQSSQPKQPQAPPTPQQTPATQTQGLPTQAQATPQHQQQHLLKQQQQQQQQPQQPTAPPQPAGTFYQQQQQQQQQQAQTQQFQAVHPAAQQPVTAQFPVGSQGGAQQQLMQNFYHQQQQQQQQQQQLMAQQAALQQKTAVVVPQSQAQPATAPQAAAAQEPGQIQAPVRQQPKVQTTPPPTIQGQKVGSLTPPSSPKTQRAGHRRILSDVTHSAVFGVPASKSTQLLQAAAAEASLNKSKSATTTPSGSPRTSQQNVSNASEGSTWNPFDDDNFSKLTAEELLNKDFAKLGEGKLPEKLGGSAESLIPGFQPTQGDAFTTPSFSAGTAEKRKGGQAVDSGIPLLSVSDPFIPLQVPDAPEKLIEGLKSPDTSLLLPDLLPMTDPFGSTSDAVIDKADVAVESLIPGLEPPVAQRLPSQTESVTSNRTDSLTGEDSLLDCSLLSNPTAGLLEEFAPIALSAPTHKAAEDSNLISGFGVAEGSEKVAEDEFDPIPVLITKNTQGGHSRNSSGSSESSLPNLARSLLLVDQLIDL
Chain of Cytochrome P450 3A4 (P08684 whole entry): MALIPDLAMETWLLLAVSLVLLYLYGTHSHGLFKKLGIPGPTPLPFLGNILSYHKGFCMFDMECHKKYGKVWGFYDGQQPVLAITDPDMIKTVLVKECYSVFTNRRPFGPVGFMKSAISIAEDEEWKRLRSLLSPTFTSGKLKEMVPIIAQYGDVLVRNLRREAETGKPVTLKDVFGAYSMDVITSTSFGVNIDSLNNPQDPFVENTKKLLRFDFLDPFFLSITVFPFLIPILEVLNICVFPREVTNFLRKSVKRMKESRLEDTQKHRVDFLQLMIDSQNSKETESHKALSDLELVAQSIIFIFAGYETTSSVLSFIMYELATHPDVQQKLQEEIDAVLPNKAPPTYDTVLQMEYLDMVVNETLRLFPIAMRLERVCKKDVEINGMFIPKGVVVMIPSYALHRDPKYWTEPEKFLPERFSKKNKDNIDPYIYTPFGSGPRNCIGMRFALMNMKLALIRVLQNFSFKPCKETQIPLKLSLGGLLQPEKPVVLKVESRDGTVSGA

Cc1cc(-c2cc(C(F)(F)F)c(OC[C@@](C)(N)CC(C)C)cn2)ccn1
remaining at 10 min, 0.5 µM [1]: 65%
remaining at 10 min, 0.5 µM [2]: 90%
remaining at 10 min, 0.5 µM [3]: 75%
IC50 (Cytochrome P450 3A4): > 20000 nM
IC50 [4]: 1.2 nM

COC(=O)Nc1cc(-c2ccc(OC[C@@](C)(N)CC(C)C)c(C)c2C)ccn1 (racemic)
remaining at 10 min, 0.5 µM [1]: 70%
remaining at 10 min, 0.5 µM [2]: 93%
Ki [5]: 0.26 nM
remaining at 10 min, 0.5 µM [3]: 83%
IC50 [6]: 9.7 nM
IC50 [4]: 4.5 nM

CC(C)C[C@](C)(N)COc1cnc(-c2ccnc(Cl)c2)cc1Cl
remaining at 10 min, 0.5 µM [1]: 92%
remaining at 10 min, 0.5 µM [2]: 86%
remaining at 10 min, 0.5 µM [3]: 98%
IC50 (Cytochrome P450 3A4): > 20000 nM

COC(=O)Nc1cc(-c2cc(C(F)(F)F)c(OC[C@@](C)(N)CC(C)C)cn2)ccn1
remaining at 10 min, 0.5 µM [1]: 78%
remaining at 10 min, 0.5 µM [2]: 80%
remaining at 10 min, 0.5 µM [3]: 79%
IC50 [6]: 0.4 nM
IC50 (Cytochrome P450 3A4): 5300 nM
IC50 [4]: 0.4 nM

COC(=O)Nc1cc(-c2ccc(OC[C@@](C)(N)CC(C)C)c(F)c2)ccn1
remaining at 10 min, 0.5 µM [1]: 71%
remaining at 10 min, 0.5 µM [2]: 82%
Ki [5]: 0.2 nM
remaining at 10 min, 0.5 µM [3]: 94%
IC50 (Cytochrome P450 3A4): > 20000 nM
IC50 [4]: 1.1 nM

CC(=O)Nc1cc(-c2ccc(OC[C@@H](N)CC(C)C)c(C)c2)ccn1
remaining at 10 min, 0.5 µM [1]: 64%
remaining at 10 min, 0.5 µM [2]: 91%
Ki [5]: 0.08 nM
remaining at 10 min, 0.5 µM [3]: 99%
IC50 [6]: 1.1 nM
IC50 (Cytochrome P450 3A4): 3900 nM
IC50 [4]: 0.4 nM

COC(=O)Nc1cc(-c2cc(C(F)F)c(OC[C@@](C)(N)CC(C)C)cn2)ccn1
remaining at 10 min, 0.5 µM [1]: 63%
remaining at 10 min, 0.5 µM [2]: 79%
Ki [5]: 0.07 nM
remaining at 10 min, 0.5 µM [3]: 87%
IC50 (Cytochrome P450 3A4): > 20000 nM
IC50 [4]: 0.4 nM

CC(=O)Nc1cc(-c2ccc(OC[C@@](C)(N)CC(C)C)c(C(F)(F)F)c2)ccn1
remaining at 10 min, 0.5 µM [1]: 54%
remaining at 10 min, 0.5 µM [2]: 66%
Ki [5]: 0.04 nM
remaining at 10 min, 0.5 µM [3]: 90%
IC50 [6]: 0.4 nM
IC50 (Cytochrome P450 3A4): 14000 nM
IC50 [4]: 0.4 nM

COC(=O)Nc1cc(-c2cnc(OC[C@@](C)(N)CC(C)C)cc2C)ccn1
remaining at 10 min, 0.5 µM [1]: 69%
remaining at 10 min, 0.5 µM [2]: 98%
Ki [5]: 41 nM
remaining at 10 min, 0.5 µM [3]: 87%
IC50 (Cytochrome P450 3A4): > 20000 nM
IC50 [4]: 490 nM

CC(=O)Nc1cc(-c2ccc(OC[C@@H](N)CC(C)C)c(OC(F)(F)F)c2)ccn1
remaining at 10 min, 0.5 µM [1]: 35%
remaining at 10 min, 0.5 µM [2]: 91%
Ki [5]: 0.04 nM
remaining at 10 min, 0.5 µM [3]: 80%
IC50 [6]: 0.45 nM
IC50 (Cytochrome P450 3A4): 230 nM
IC50 [4]: 0.5 nM

COC(=O)Nc1cc(-c2cc(OC)c(OC[C@@](C)(N)CC(C)C)cn2)ccn1
remaining at 10 min, 0.5 µM [1]: 100%
remaining at 10 min, 0.5 µM [2]: 91%
remaining at 10 min, 0.5 µM [3]: 96%
IC50 (Cytochrome P450 3A4): > 20000 nM
IC50 [4]: 3.5 nM

CC(C)C[C@H](N)COc1ccc(-c2ccnc(N)c2)cc1
Ki [5]: 13 nM
IC50 [4]: 21 nM

CC(=O)Nc1cc(-c2ccc(OC[C@@](C)(N)CC(C)C)c(F)c2)ccn1
remaining at 10 min, 0.5 µM [1]: 70%
remaining at 10 min, 0.5 µM [2]: 91%
Ki [5]: 0.24 nM
remaining at 10 min, 0.5 µM [3]: 92%
IC50 [6]: 3.7 nM
IC50 (Cytochrome P450 3A4): > 20000 nM
IC50 [4]: 0.8 nM

COC(=O)Nc1cc(-c2ccc(OC[C@@](C)(N)CC(C)C)c(C)c2)ccn1 (racemic)
remaining at 10 min, 0.5 µM [1]: 75%
remaining at 10 min, 0.5 µM [2]: 98%
Ki [5]: 0.08 nM
remaining at 10 min, 0.5 µM [3]: 96%
IC50 [6]: 0.8 nM
IC50 (Cytochrome P450 3A4): > 20000 nM
IC50 [4]: 0.8 nM

CC(=O)Nc1cc(-c2ccc(OC[C@@](C)(N)CC(C)C)c(C(F)F)c2)ccn1
remaining at 10 min, 0.5 µM [1]: 57%
remaining at 10 min, 0.5 µM [2]: 74%
Ki [5]: 0.05 nM
remaining at 10 min, 0.5 µM [3]: 84%
IC50 [6]: 0.5 nM
IC50 [4]: 0.6 nM

COC(=O)Nc1cc(-c2ccc(OC[C@@](C)(N)CC(C)C)c(Cl)c2)ccn1 (racemic)
remaining at 10 min, 0.5 µM [1]: 66%
remaining at 10 min, 0.5 µM [2]: 81%
Ki [5]: 0.09 nM
remaining at 10 min, 0.5 µM [3]: 85%
IC50 [6]: 1.4 nM
IC50 (Cytochrome P450 3A4): 740 nM
IC50 [4]: 0.5 nM

CC(=O)Nc1cc(-c2ccc(OC[C@@](C)(N)CC(C)C)c(OC(F)(F)F)c2)ccn1
remaining at 10 min, 0.5 µM [1]: 27%
remaining at 10 min, 0.5 µM [2]: 54%
Ki [5]: 0.07 nM
remaining at 10 min, 0.5 µM [3]: 87%
IC50 [6]: 1.6 nM
IC50 (Cytochrome P450 3A4): 9500 nM
IC50 [4]: 0.8 nM

Cc1cc(-c2ccnc(C(F)F)c2)ncc1OC[C@@](C)(N)CC(C)C
remaining at 10 min, 0.5 µM [1]: 80%
remaining at 10 min, 0.5 µM [2]: 83%
Ki [5]: 0.3 nM
remaining at 10 min, 0.5 µM [3]: 76%
IC50 [6]: 12 nM
IC50 (Cytochrome P450 3A4): > 20000 nM
IC50 [4]: 1.4 nM

CC(=O)Nc1cc(-c2cc(F)c(OC[C@@H](N)CC(C)C)c(F)c2)ccn1
remaining at 10 min, 0.5 µM [1]: 90%
remaining at 10 min, 0.5 µM [2]: 90%
Ki [5]: 27 nM
remaining at 10 min, 0.5 µM [3]: 100%
IC50 (Cytochrome P450 3A4): 1300 nM

COC(=O)Nc1cc(-c2ccc(OC[C@@](C)(N)CC(C)C)c(C#N)c2)ccn1
remaining at 10 min, 0.5 µM [1]: 69%
remaining at 10 min, 0.5 µM [2]: 57%
Ki [5]: 0.07 nM
remaining at 10 min, 0.5 µM [3]: 88%
IC50 [6]: 0.8 nM
IC50 (Cytochrome P450 3A4): 13000 nM
IC50 [4]: 0.5 nM

CC(C)C[C@H](N)COc1ccc(-c2ccnc(NCc3ccccc3)c2)cc1
IC50 [4]: 127 nM

CC(=O)Nc1cc(-c2cc(F)c(OC[C@@H](N)CC(C)C)c(Cl)c2)ccn1
remaining at 10 min, 0.5 µM [1]: 75%
remaining at 10 min, 0.5 µM [2]: 94%
Ki [5]: 2.5 nM
remaining at 10 min, 0.5 µM [3]: 97%
IC50 [6]: 6.8 nM
IC50 (Cytochrome P450 3A4): 800 nM

COC(=O)Nc1cc(-c2ccc(OC[C@@](C)(N)CC(C)C)c(CO)c2)ccn1
remaining at 10 min, 0.5 µM [1]: 95%
remaining at 10 min, 0.5 µM [2]: 91%
Ki [5]: 0.63 nM
remaining at 10 min, 0.5 µM [3]: 100%
IC50 [6]: 3.9 nM
IC50 (Cytochrome P450 3A4): > 20000 nM

CC(=O)Nc1cc(-c2ccc(OC[C@@H](N)CC(C)C)c(Cl)c2)ccn1
remaining at 10 min, 0.5 µM [1]: 86%
remaining at 10 min, 0.5 µM [2]: 89%
Ki [5]: 0.06 nM
remaining at 10 min, 0.5 µM [3]: 100%
IC50 [6]: 0.2 nM
IC50 (Cytochrome P450 3A4): 2600 nM
IC50 [4]: 0.5 nM

COC(=O)Nc1cc(-c2ccc(OC[C@@](C)(N)CC(C)C)cn2)ccn1 (racemic)
remaining at 10 min, 0.5 µM [1]: 93%
remaining at 10 min, 0.5 µM [2]: 93%
Ki [5]: 18 nM
remaining at 10 min, 0.5 µM [3]: 100%
IC50 (Cytochrome P450 3A4): > 20000 nM
IC50 [4]: 23 nM

CC(=O)Nc1cc(-c2ccc(OC[C@@H](N)CC(C)C)cc2)ccn1
Ki [5]: 0.9 nM
IC50 [6]: 8.1 nM
IC50 [4]: 4.6 nM

Cc1cc(-c2cc(C)c(OC[C@@](C)(N)CC(C)C)cn2)ccn1
remaining at 10 min, 0.5 µM [1]: 72%
remaining at 10 min, 0.5 µM [2]: 79%
Ki [5]: 4.7 nM
remaining at 10 min, 0.5 µM [3]: 72%
IC50 [4]: 19 nM

COC(=O)Nc1cc(-c2ccc(OC[C@@](C)(N)CC(C)C)nc2)ccn1
remaining at 10 min, 0.5 µM [1]: 79%
remaining at 10 min, 0.5 µM [2]: 100%
Ki [5]: 4.9 nM
remaining at 10 min, 0.5 µM [3]: 96%
IC50 (Cytochrome P450 3A4): > 20000 nM
IC50 [4]: 28 nM

COC(=O)Nc1cc(-c2cc(Cl)c(OC[C@@](C)(N)CC(C)C)cn2)ccn1
remaining at 10 min, 0.5 µM [1]: 87%
remaining at 10 min, 0.5 µM [2]: 96%
Ki [5]: 0.11 nM
remaining at 10 min, 0.5 µM [3]: 99%
IC50 (Cytochrome P450 3A4): > 20000 nM
IC50 [4]: 1.1 nM

COC(=O)Nc1cc(-c2ccc(OC[C@@H](N)CC(C)C)c(F)c2)ccn1
remaining at 10 min, 0.5 µM [1]: 80%
remaining at 10 min, 0.5 µM [2]: 92%
remaining at 10 min, 0.5 µM [3]: 84%
IC50 (Cytochrome P450 3A4): 2100 nM
IC50 [4]: 1.2 nM
